Article PMC4254589 (Bioorganic & medicinal chemistry, 2014)
Bridge positions count the residues as written; N and C are the ends. Square brackets hold non-standard residues; d marks the D form. Peptide text beside a SMILES is read from it. d2Nal = N[C@H](Cc1ccc2ccccc2c1)C(=O)O; Nle = CCCC[C@H](N)C(=O)O

biological target: T1, hMC4R (Homo sapiens, UniProt P32245); experiment: not given; conditions: binding to hMC4R, MSH(7) ligands; cited from earlier work
T1 sequence (P32245 whole entry): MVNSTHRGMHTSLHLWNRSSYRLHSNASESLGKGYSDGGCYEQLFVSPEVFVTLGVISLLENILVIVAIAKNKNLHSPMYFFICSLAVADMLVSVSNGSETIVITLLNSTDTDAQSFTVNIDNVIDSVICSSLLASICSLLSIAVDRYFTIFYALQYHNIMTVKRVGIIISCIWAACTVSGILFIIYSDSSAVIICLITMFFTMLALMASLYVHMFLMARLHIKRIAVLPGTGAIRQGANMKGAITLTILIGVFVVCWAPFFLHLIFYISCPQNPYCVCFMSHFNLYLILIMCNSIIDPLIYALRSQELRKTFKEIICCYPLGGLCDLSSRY

Row | Compound | EC50
1 | Ac-(Pro-Gly)6- MSH(7)-NH2 (Ac-PGPGPGPGPGPGS[Nle]EH[dF]RW-NH2; SMILES CCCC[C@H](NC(=O)[C@H](CO)NC(=O)CNC(=O)[C@@H]1CCCN1C(=O)CNC(=O)[C@@H]1CCCN1C(=O)CNC(=O)[C@@H]1CCCN1C(=O)CNC(=O)[C@@H]1CCCN1C(=O)CNC(=O)[C@@H]1CCCN1C(=O)CNC(=O)[C@@H]1CCCN1C(C)=O)C(=O)N[C@@H](CCC(=O)O)C(=O)N[C@@H](Cc1c[nH]cn1)C(=O)N[C@H](Cc1ccccc1)C(=O)N[C@@H](CCCNC(=N)N)C(=O)N[C@@H](Cc1c[nH]c2ccccc12)C(N)=O) [compound 19] | 82 ± 12 nM
2 | Ac-(Pro-Gly)9- MSH(7)-NH2 (Ac-PGPGPGPGPGPGPGPGPGS[Nle]EH[dF]RW-NH2; SMILES CCCC[C@H](NC(=O)[C@H](CO)NC(=O)CNC(=O)[C@@H]1CCCN1C(=O)CNC(=O)[C@@H]1CCCN1C(=O)CNC(=O)[C@@H]1CCCN1C(=O)CNC(=O)[C@@H]1CCCN1C(=O)CNC(=O)[C@@H]1CCCN1C(=O)CNC(=O)[C@@H]1CCCN1C(=O)CNC(=O)[C@@H]1CCCN1C(=O)CNC(=O)[C@@H]1CCCN1C(=O)CNC(=O)[C@@H]1CCCN1C(C)=O)C(=O)N[C@@H](CCC(=O)O)C(=O)N[C@@H](Cc1c[nH]cn1)C(=O)N[C@H](Cc1ccccc1)C(=O)N[C@@H](CCCNC(=N)N)C(=O)N[C@@H](Cc1c[nH]c2ccccc12)C(N)=O) [compound 20] | 236 ± 24 nM
3 | Ac-(Pro-Gly)12- MSH(7)-NH2 (Ac-PGPGPGPGPGPGPGPGPGPGPGPGS[Nle]EH[dF]RW-NH2; SMILES CCCC[C@H](NC(=O)[C@H](CO)NC(=O)CNC(=O)[C@@H]1CCCN1C(=O)CNC(=O)[C@@H]1CCCN1C(=O)CNC(=O)[C@@H]1CCCN1C(=O)CNC(=O)[C@@H]1CCCN1C(=O)CNC(=O)[C@@H]1CCCN1C(=O)CNC(=O)[C@@H]1CCCN1C(=O)CNC(=O)[C@@H]1CCCN1C(=O)CNC(=O)[C@@H]1CCCN1C(=O)CNC(=O)[C@@H]1CCCN1C(=O)CNC(=O)[C@@H]1CCCN1C(=O)CNC(=O)[C@@H]1CCCN1C(=O)CNC(=O)[C@@H]1CCCN1C(C)=O)C(=O)N[C@@H](CCC(=O)O)C(=O)N[C@@H](Cc1c[nH]cn1)C(=O)N[C@H](Cc1ccccc1)C(=O)N[C@@H](CCCNC(=N)N)C(=O)N[C@@H](Cc1c[nH]c2ccccc12)C(N)=O) [compound 21] | 188 ± 25 nM
4 | Ac-MSH(7)-(Pro-Gly)6- MSH(7)-NH2 (Ac-S[Nle]EH[dF]RWPGPGPGPGPGPGS[Nle]EH[dF]RW-NH2; SMILES CCCC[C@H](NC(=O)[C@H](CO)NC(C)=O)C(=O)N[C@@H](CCC(=O)O)C(=O)N[C@@H](Cc1c[nH]cn1)C(=O)N[C@H](Cc1ccccc1)C(=O)N[C@@H](CCCNC(=N)N)C(=O)N[C@@H](Cc1c[nH]c2ccccc12)C(=O)N1CCC[C@H]1C(=O)NCC(=O)N1CCC[C@H]1C(=O)NCC(=O)N1CCC[C@H]1C(=O)NCC(=O)N1CCC[C@H]1C(=O)NCC(=O)N1CCC[C@H]1C(=O)NCC(=O)N1CCC[C@H]1C(=O)NCC(=O)N[C@@H](CO)C(=O)N[C@@H](CCCC)C(=O)N[C@@H](CCC(=O)O)C(=O)N[C@@H](Cc1c[nH]cn1)C(=O)N[C@H](Cc1ccccc1)C(=O)N[C@@H](CCCNC(=N)N)C(=O)N[C@@H](Cc1c[nH]c2ccccc12)C(N)=O) [compound 22] | 11 ± 2 nM

biological target: T1, hMC4R; experiment: Lanthanide-based competitive binding assay; conditions: not given

Row | EC50 | Compound
5 | ~50 nM | CCCC[C@H](NC(=O)[C@H](CO)NC(C)=O)C(=O)N[C@@H](CCC(=O)O)C(=O)N[C@@H](Cc1c[nH]cn1)C(=O)N[C@H](Cc1ccccc1)C(=O)N[C@@H](CCCNC(=N)N)C(=O)N[C@@H](Cc1c[nH]c2ccccc12)C(N)=O [MSH(7), Ac-Ser-Nle-Glu-His-D-Phe-Arg-Trp-NH2] (Ac-S[Nle]EH[dF]RW-NH2)

same assay, conditions: SEM

Row | EC50 | Compound
6 | 1.58 nM | CCCC[C@H](NC(=O)CNC(=O)[C@@H]1CCCN1C(=O)CNC(=O)[C@@H]1CCCN1C(=O)CNC(=O)[C@@H]1CCCN1C(=O)CNC(=O)[C@@H]1CCCN1C(=O)CNC(=O)[C@@H]1CCCN1C(=O)CNC(=O)[C@@H]1CCCN1C(=O)CNC(=O)[C@@H]1CCCN1C(=O)CNC(=O)[C@@H]1CCCN1C(=O)CNC(=O)[C@@H]1CCCN1C(=O)CNC(=O)[C@@H]1CCCN1C(=O)CNC(=O)[C@@H]1CCCN1C(=O)CNC(=O)[C@@H]1CCCN1C(=O)[C@H](Cc1c[nH]c2ccccc12)NC(=O)[C@H](CCCNC(=N)N)NC(=O)[C@@H](Cc1ccccc1)NC(=O)[C@H](Cc1c[nH]cn1)NC(=O)[C@H](CCC(=O)O)NC(=O)[C@H](CCCC)NC(=O)[C@H](CO)NC(C)=O)C(=O)N[C@H]1CC(=O)NCCCC[C@@H](C(N)=O)NC(=O)[C@H](Cc2c[nH]c3ccccc23)NC(=O)[C@H](CCCNC(=N)N)NC(=O)[C@@H](Cc2ccc3ccccc3c2)NC(=O)[C@H](Cc2c[nH]cn2)NC1=O [compound 15, Ac-MSH(7)-(Pro-Gly)12-SHU9119-NH2] (Ac-S[Nle]EH[dF]RWPGPGPGPGPGPGPGPGPGPGPGPG[Nle]DH[d2Nal]RWK-NH2; lactam 33-38)
7 | 1.38 nM | CCCC[C@H](NC(=O)COCC(=O)NCCCOCCOCCOCCCNC(=O)CNC(=O)[C@@H]1CCCN1C(=O)CNC(=O)[C@@H]1CCCN1C(=O)CNC(=O)[C@@H]1CCCN1C(=O)COCC(=O)NCCCOCCOCCOCCCNC(=O)[C@H](Cc1c[nH]c2ccccc12)NC(=O)[C@H](CCCNC(=N)N)NC(=O)[C@@H](Cc1ccccc1)NC(=O)[C@H](Cc1c[nH]cn1)NC(=O)[C@H](CCC(=O)O)NC(=O)[C@H](CCCC)NC(=O)[C@H](CO)NC(C)=O)C(=O)N[C@H]1CC(=O)NCCCC[C@@H](C(N)=O)NC(=O)[C@H](Cc2c[nH]c3ccccc23)NC(=O)[C@H](CCCNC(=N)N)NC(=O)[C@@H](Cc2ccc3ccccc3c2)NC(=O)[C@H](Cc2c[nH]cn2)NC1=O [compound 16, Ac-MSH(7)-PEGO-(Pro-Gly)3-PEGO-SHU9119-NH2]
8 | 1.86 nM | CCCC[C@H](NC(=O)COCC(=O)NCCCOCCOCCOCCCNC(=O)[C@H](Cc1c[nH]c2ccccc12)NC(=O)[C@H](CCCNC(=N)N)NC(=O)[C@@H](Cc1ccccc1)NC(=O)[C@H](Cc1c[nH]cn1)NC(=O)[C@H](CCC(=O)O)NC(=O)[C@H](CCCC)NC(=O)[C@H](CO)NC(C)=O)C(=O)N[C@H]1CC(=O)NCCCC[C@@H](C(N)=O)NC(=O)[C@H](Cc2c[nH]c3ccccc23)NC(=O)[C@H](CCCNC(=N)N)NC(=O)[C@@H](Cc2ccc3ccccc3c2)NC(=O)[C@H](Cc2c[nH]cn2)NC1=O [compound 17, Ac-MSH(7)-PEGO-SHU9119-NH2]
9 | 1.7 nM | CCCC[C@H](NC(=O)COCC(=O)NCCCOCCOCCOCCCNC(=O)COCC(=O)NCCCOCCOCCOCCCNC(=O)[C@H](Cc1c[nH]c2ccccc12)NC(=O)[C@H](CCCNC(=N)N)NC(=O)[C@@H](Cc1ccccc1)NC(=O)[C@H](Cc1c[nH]cn1)NC(=O)[C@H](CCC(=O)O)NC(=O)[C@H](CCCC)NC(=O)[C@H](CO)NC(C)=O)C(=O)N[C@H]1CC(=O)NCCCC[C@@H](C(N)=O)NC(=O)[C@H](Cc2c[nH]c3ccccc23)NC(=O)[C@H](CCCNC(=N)N)NC(=O)[C@@H](Cc2ccc3ccccc3c2)NC(=O)[C@H](Cc2c[nH]cn2)NC1=O [compound 18, Ac-MSH(7)-PEGO-PEGO-SHU9119-NH2]
